Source: patent US8143393B2, “Substituted 4-amino-pyrrolotriazine derivatives useful for treating hyper-proliferative disorders and diseases associated with angiogenesis” (Bayer HealthCare LLC, priority 2005, dated 2012)

These molecules were tested against T1, FGFR-1 (Homo sapiens, UniProt P11362) (assay: FGFR-1 TR-FRET biochemical assay). Details: 0.6 uM ATP, 5 nM FGFR1-GST; bounds given in nM.
T1 construct: GST; made in house
Experimental: FGFR-1TR-FRET Biochemical Assay
The FGFR-1 Assay was performed on half well 96-well opaque plates (Costar 3915) in a LANCE format. LANCE is a homogenous time resolved fluormetry based application available through Perkin Elmer. For this assay, 50 uL reactions were set up using: 0.6 uM ATP (Sigma), 25 nM poly GT-biotin (CIS BIO International), 2 nM Eu-labelled phospho-Tyr Ab (PY20 PerkinElmer), 10 nM Streptavidin-APC (Perkin Elmer), 5 nM FGFR1-GST (generated by DRT, Bayer Healthcare), 1% DMSO, 50 mM HEPES pH 7.5, 10 mM MgCl2, 0.1 mM EDTA, 0.015% Brij, 0.1 mg/ml BSA, 0.1% B-mercaptoethanol. All reactions were initiated with the addition of enzyme and were left to incubate for one hour at room temperature. Time-resolved fluorescence was then read on a Perkin Elmer VictorV Multilabel counter. The reading protocol uses an excitation wavelength at 340 nm and emission reads at both 615 and 665 nm. Signal was calculated as a ratio: (Flourescence at 665 nm/Flourescence at 615 nM)*10000 for each well. The background control used for this assay is the signal produced with all assay components excluding ATP. For IC50 generation, compounds were added prior to the enzyme initiation. A 50-fold stock plate was made with compounds serially diluted 1:5 in a 50% DMSO/50% dH2O solution. A 1 μL addition of the stock to the assay wells gave final compound concentrations ranging from 10 μM-0.128 nM in 1% DMSO. The data were expressed as percent inhibition: % inhibition=100−((Signal with inhibitor−background)/(Signal without inhibitor−background))*100.

T1 sequence (P11362 22-822): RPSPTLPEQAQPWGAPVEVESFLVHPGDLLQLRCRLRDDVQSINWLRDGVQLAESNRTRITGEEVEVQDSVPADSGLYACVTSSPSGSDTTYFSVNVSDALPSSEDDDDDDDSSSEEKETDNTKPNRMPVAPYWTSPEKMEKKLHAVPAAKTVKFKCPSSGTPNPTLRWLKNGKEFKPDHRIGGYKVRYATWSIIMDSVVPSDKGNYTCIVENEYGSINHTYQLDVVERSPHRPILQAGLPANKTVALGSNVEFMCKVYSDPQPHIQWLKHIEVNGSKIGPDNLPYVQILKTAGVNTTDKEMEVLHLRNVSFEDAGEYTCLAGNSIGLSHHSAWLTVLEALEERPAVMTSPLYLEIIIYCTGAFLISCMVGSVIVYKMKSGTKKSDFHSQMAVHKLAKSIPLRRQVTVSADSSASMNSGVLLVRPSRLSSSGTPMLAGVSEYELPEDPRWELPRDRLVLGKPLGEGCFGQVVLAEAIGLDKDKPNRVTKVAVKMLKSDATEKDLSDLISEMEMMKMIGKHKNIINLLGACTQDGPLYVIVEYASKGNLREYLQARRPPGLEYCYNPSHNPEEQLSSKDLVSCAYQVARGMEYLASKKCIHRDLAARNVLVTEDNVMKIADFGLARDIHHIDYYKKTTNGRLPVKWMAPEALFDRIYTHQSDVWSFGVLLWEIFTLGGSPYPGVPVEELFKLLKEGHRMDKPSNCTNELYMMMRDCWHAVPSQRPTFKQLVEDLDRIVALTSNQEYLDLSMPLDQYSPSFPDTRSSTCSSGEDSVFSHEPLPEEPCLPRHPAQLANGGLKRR

Row | IC50 | Structure (SMILES)
1 | 10 to 100 nM | CC(C)(O)c1cc(-c2ccc(NC(=O)Nc3cc(C(F)(F)F)ccc3F)cc2)c2c(N)ncnn12 [Example 104, N-{4-[4-amino-7-(1-hydroxy-1-methylethyl)pyrrolo[2,1-f][1,2,4]triazin-5-yl]phenyl}-N′-[2-fluoro-5-(trifluoromethyl)phenyl]urea]
2 | < 10 nM | Nc1ncnn2c(CCCN3CCOCC3)cc(-c3ccc(NC(=O)Nc4cc(C(F)(F)F)ccn4)cc3)c12 [Example 107, N-{4-[4-amino-7-(3-morpholin-4-ylpropyl)pyrrolo[2,1-f][1,2,4]triazin-5-yl]phenyl}-N′-[4-(trifluoromethyl)pyridin-2-yl]urea]
3 | < 10 nM | Nc1ncnn2c(CCCN3CCOCC3)cc(-c3ccc(NC(=O)Nc4cc(C(F)(F)F)ccc4F)cc3)c12 [Example 108, N-{4-[4-amino-7-(3-morpholin-4-ylpropyl)pyrrolo[2,1-f][1,2,4]triazin-5-yl]phenyl}-N′-[2-fluoro-5-(trifluoromethyl)phenyl]urea]
4 | < 10 nM | Nc1ncnn2c(CCCN3CCOCC3)cc(-c3ccc(NC(=O)Nc4cc(C(F)(F)F)ccc4F)c(F)c3)c12 [Example 109, N-{4-[4-amino-7-(3-morpholin-4-ylpropyl)pyrrolo[2,1-f][1,2,4]triazin-5-yl]-2-fluorophenyl}-N′-[2-fluoro-5-(trifluoromethyl)phenyl]urea]
5 | < 10 nM | Nc1ncnn2c(C3CCNCC3)cc(-c3ccc(NC(=O)Nc4cc(C(F)(F)F)ccc4F)c(F)c3)c12 [Example 111, N-[4-(4-amino-7-piperidin-4-ylpyrrolo[2,1-f][1,2,4]-triazin-5-yl)-2-fluorophenyl]-N′-[2-fluoro-5-(trifluoromethyl)phenyl]urea]
6 | > 100 nM | Nc1ncnn2c(C3CCN(C(=O)C(F)(F)F)CC3)cc(-c3ccc(NC(=O)Nc4cc(C(F)(F)F)ccc4F)c(F)c3)c12 [Example 112, N-(4-4-amino-7-[1-(trifluoroacetyl)piperidin-4-yl]pyrrolo[2,1-f][1,2,4]triazin-5-yl-2-fluorophenyl)-N′-[2-fluoro-5-(trifluoromethyl)-phenyl]urea]
7 | < 10 nM | CN1CCC(c2cc(-c3ccc(NC(=O)Nc4cc(C(F)(F)F)ccc4F)c(F)c3)c3c(N)ncnn23)CC1 [Example 113, N-4-[4-amino-7-(1-methylpiperidin-4-yl)pyrrolo[2,1-f][1,2,4]triazin-5-yl]-2-fluorophenyl-N′-[2-fluoro-5-(trifluoromethyl)phenyl]urea]
8 | < 10 nM | Nc1ncnn2c(C3CCN(C(=O)CO)CC3)cc(-c3ccc(NC(=O)Nc4cc(C(F)(F)F)ccc4F)c(F)c3)c12 [Example 114, N-4-[4-amino-7-(1-glycoloylpiperidin-4-yl)pyrrolo[2,1-f][1,2,4]triazin-5-yl]-2-fluorophenyl-N′-[2-fluoro-5-(trifluoromethyl)phenyl]urea]
9 | 10 to 100 nM | Nc1ncnn2c(C3CCN(C(=O)CN4CCOCC4)CC3)cc(-c3ccc(NC(=O)Nc4cc(C(F)(F)F)ccc4F)c(F)c3)c12 [Example 115, N-(4-4-amino-7-[1-(morpholin-4-ylacetyl)piperidin-4-yl]pyrrolo[2,1-f][1,2,4]triazin-5-yl-2-fluorophenyl)-N′-[2-fluoro-5-(trifluoromethyl)-phenyl]urea]
10 | < 10 nM | Nc1ncnn2c(C3CCN(CCO)CC3)cc(-c3ccc(NC(=O)Nc4cc(C(F)(F)F)ccc4F)c(F)c3)c12 [Example 116, N-(4-4-amino-7-[1-(2-hydroxyethyl)piperidin-4-yl]pyrrolo[2,1-f][1,2,4]triazin-5-yl-2-fluorophenyl)-N′-[2-fluoro-5-(trifluoromethyl)phenyl]urea]
11 | < 10 nM | Nc1ncnn2c(C3CCN(CC(=O)O)CC3)cc(-c3ccc(NC(=O)Nc4cc(C(F)(F)F)ccc4F)c(F)c3)c12 [Example 119, [4-(4-amino-5-3-fluoro-4-[([2-fluoro-5-(trifluoromethyl)-phenyl]aminocarbonyl)amino]phenylpyrrolo[2,1-f][1,2,4]triazin-7-yl)piperidin-1-yl]acetic acid]
12 | < 10 nM | CNC(=O)CN1CCC(c2cc(-c3ccc(NC(=O)Nc4cc(C(F)(F)F)ccc4F)c(F)c3)c3c(N)ncnn23)CC1 [Example 120, 2-[4-(4-amino-5-3-fluoro-4-[([2-fluoro-5-(trifluoromethyl)phenyl]aminocarbonyl)amino]phenylpyrrolo[2,1-f][1,2,4]triazin-7-yl)piperidin-1-yl]-N-methylacetamide]
13 | < 10 nM | Nc1ncnn2c(C3CCN(CC(O)CO)CC3)cc(-c3ccc(NC(=O)Nc4cc(C(F)(F)F)ccc4F)c(F)c3)c12 (stereo not drawn) [Example 121, N-(4-4-amino-7-[1-(2,3-dihydroxypropyl)piperidin-4-yl]pyrrolo[2,1-f][1,2,4]triazin-5-yl-2-fluorophenyl)-N′-[2-fluoro-5-(trifluoromethyl)-phenyl]urea]
14 | 10 to 100 nM | CC(C)(C)NC(=O)N1CCC(c2cc(-c3ccc(NC(=O)Nc4cc(C(F)(F)F)ccn4)c(F)c3)c3c(N)ncnn23)CC1 [Example 124, 4-4-amino-5-[3-fluoro-4-([4-(trifluoromethyl)pyridin-2-yl]carbamoylamino)phenyl]pyrrolo[2,1-f][1,2,4]triazin-7-yl-N-tert-butylpiperidine-1-carboxamide]
15 | < 10 nM | Nc1ncnn2c(CN3CCOCC3)cc(-c3ccc(NC(=O)Nc4cc(C(F)(F)F)ccc4F)c(Cl)c3)c12 [Example 128, N-4-[4-amino-7-(morpholin-4-ylmethyl)pyrrolo[2,1-f][1,2,4]triazin-5-yl]-2-chlorophenyl-N′-[2-fluoro-5-(trifluoromethyl)phenyl]urea]
16 | < 10 nM | Nc1ncnn2c(CN3CCOCC3)cc(-c3ccc(NC(=O)Nc4cc(C(F)(F)F)ccn4)c(Cl)c3)c12 [Example 129, N-4-[4-amino-7-(morpholin-4-ylmethyl)pyrrolo[2,1-f][1,2,4]triazin-5-yl]-2-chlorophenyl-N′-[4-(trifluoromethyl)pyridin-2-yl]urea]
17 | 10 to 100 nM | Cc1ccnc(NC(=O)Nc2ccc(-c3cc(CN4CCOCC4)n4ncnc(N)c34)cc2Cl)c1 [Example 133, N-4-[4-amino-7-(morpholin-4-ylmethyl)pyrrolo[2,1-f][1,2,4]triazin-5-yl]-2-chlorophenyl-N′-(4-methylpyridin-2-yl)urea]
18 | 10 to 100 nM | Cc1cc(NC(=O)Nc2cc(C(F)(F)F)ccc2F)c(F)cc1-c1cc(CN2CCOCC2)n2ncnc(N)c12 [Example 136, N-{4-[4-amino-7-(morpholin-4-ylmethyl)pyrrolo[2,1-f][1,2,4]triazin-5-yl]-2-fluoro-5-methylphenyl}-N′-[2-fluoro-5(trifluoromethyl)-phenyl]urea]
19 | 10 to 100 nM | Cc1ccc(F)c(NC(=O)Nc2cc(F)c(-c3cc(CN4CCOCC4)n4ncnc(N)c34)cc2F)c1 [Example 145, N-{4-[4-amino-7-(morpholin-4-ylmethyl)pyrrolo[2,1-f][1,2,4]triazin-5-yl]-2,5-difluorophenyl}-N′-(2-fluoro-5-methylphenyl)urea]
20 | > 100 nM | Cc1cc(NC(=O)Nc2cc(C(F)(F)F)ccc2Cl)c(F)cc1-c1cc(CN2CCOCC2)n2ncnc(N)c12 [Example 147, N-{4-[4-amino-7-(morpholin-4-ylmethyl)pyrrolo[2,1-f][1,2,4]triazin-5-yl]-2-fluoro-5-methylphenyl}-N′-[2-chloro-5-(trifluoromethyl)phenyl]urea]
21 | < 10 nM | Cc1ccc(F)c(NC(=O)Nc2ccc(-c3cc(CN4CCOCC4)n4ncnc(N)c34)cc2F)c1 [Example 149, N-{4-[4-amino-7-(morpholin-4-ylmethyl)pyrrolo[2,1-f][1,2,4]triazin-5-yl]-2-fluorophenyl}-N′-(2-fluoro-5-methylphenyl)urea]
22 | < 10 nM | CN1CCN(C(=O)c2cc(-c3ccc(NC(=O)Nc4cc(C(F)(F)F)ccc4F)c(F)c3)c3c(N)ncnn23)CC1 [Example 161, N-(4-{4-amino-7-[(4-methylpiperazin-1-yl)carbonyl]pyrrolo[2,1-f][1,2,4]triazin-5-yl}-2-fluorophenyl)-N′-[2-fluoro-5-(trifluoromethyl)phenyl]urea]
23 | < 10 nM | Nc1ncnn2c(CN3CCNC(=O)C3)cc(-c3ccc(NC(=O)Nc4cc(C(F)(F)F)ccn4)c(F)c3)c12 [Example 163, N-(4-{4-amino-7-[(3-oxopiperazin-1-yl)methyl]-pyrrolo [2,1-f][1,2,4]triazin-5-yl}-2-fluorophenyl)-N′-[4-(trifluoromethyl)-pyridin-2-yl]urea]
24 | < 10 nM | Nc1ncnn2c(CN3CCNC(=O)C3)cc(-c3cc(F)c(NC(=O)Nc4cc(C(F)(F)F)ccc4F)cc3F)c12 [Example 164, N-(4-{4-amino-7-[(3-oxopiperazin-1-yl)methyl]-pyrrolo [2,1-f][1,2,4]triazin-5-yl}-2,5-difluorophenyl)-N′-[2-fluoro-5-(trifluoromethyl)phenyl]urea]
25 | < 10 nM | Cc1cc(-c2cc(CN3CCNC(=O)C3)n3ncnc(N)c23)ccc1NC(=O)Nc1cc(C(F)(F)F)ccc1F [Example 165, N-(4-{4-amino-7-[(3-oxopiperazin-1-yl)methyl]-pyrrolo[2,1-f][1,2,4]triazin-5-yl}-2-methylphenyl)-N′-[2-fluoro-5-(trifluoromethyl)-phenyl]urea]

Same assay, conditions: upper bound of the bin 'greater than 100 nM but less than 1 μM' (lower bound in E1)

Row | IC50 | Structure (SMILES)
26 | < 1000 nM | Nc1ncnn2c(C3CCN(C(=O)C(F)(F)F)CC3)cc(-c3ccc(NC(=O)Nc4cc(C(F)(F)F)ccc4F)c(F)c3)c12 [Example 112, N-(4-4-amino-7-[1-(trifluoroacetyl)piperidin-4-yl]pyrrolo[2,1-f][1,2,4]triazin-5-yl-2-fluorophenyl)-N′-[2-fluoro-5-(trifluoromethyl)-phenyl]urea]
27 | < 1000 nM | Cc1cc(NC(=O)Nc2cc(C(F)(F)F)ccc2Cl)c(F)cc1-c1cc(CN2CCOCC2)n2ncnc(N)c12 [Example 147, N-{4-[4-amino-7-(morpholin-4-ylmethyl)pyrrolo[2,1-f][1,2,4]triazin-5-yl]-2-fluoro-5-methylphenyl}-N′-[2-chloro-5-(trifluoromethyl)phenyl]urea]
